Data reported in patent publication US6699676B1, “Uses of ouabain and ouabain-like molecules in apoptosis related pathologies” (Corporation du Centre de Recherche du Centre, Hospitalier …, priority 1999, dated 2004).

Key:
Jurkat cells [1] = test: Chromatin cleavage assay in Jurkat cells; assay type: cell-based, human; settings: for Chromatin fragments (%): 1 mM, 2 hours + 7 hours; for content of chromatin fragments: 3 hours, 0.25 μM staurosporine or 350 mM mannitol (from 2.6±1.2)
Protocol: FIG. 4. Effect of ouabain on chromatin cleavage in Jurkat cells. (A) Kinetics of accumulation of chromatin fragments in control (curves 1, 3) and ouabain-treated (curves 2, 4) cells in the absence (curves 1, 2) or presence (curves 3, 4) of 100 ng/ml of anti-human Fas (mouse monoclonal IgM, Upstate Biotechnology, Lake Placid, N.Y.); (B) Content of chromatin fragments in Jurkat cells subjected to 3 hours of incubation with or without 1 mM ouabain, 0.25 μM staurosporine and 350 mM mannitol. In both experiments, ouabain was added 2 hours before triggering of apoptosis. Mean values±S.E. obtained in experiments performed in triplicate are given.
(§1) To estimate chromatin cleavage, cells were incubated for 2 hours in the presence of 10% calf serum in the control solution (DMEM, [Na^+]=137 mM; [K^+]=5 mM—line 1) or under equimolar substitution of NaCl with KCl ([Na^+]=14 mM; [K^+]=128 mM—line 2) with or without 1 mM ouabain and then for an additional 7 hours at the same media with or without 100 ng/ml Fas ligand (Fas-L). Intracellular Na^+ and K^+ content was measured as steady-state distribution of isotopes after 24 hours preincubation of cells in control Na^+-enriched solution containing 0.5 μCi/ml ^86Rb or 2 μCi/ml ^22Na, and an additional 6 hours incubation in Na^+—(line 1) or K^+—(line 2) enriched medium containing 10% calf serum, isotopes with the same specific activity with or without 1 mM ouabain. For more details see Experimental Procedures. Mean values±S.E. obtained in experiments performed in triplicate are given. ★, #p<0.01 and 0.001 compared to ouabain-untreated cells.
Cells. VSMC were obtained by explant methods from aortas of 10- to 13-week-old male rats as described previously (17), cultured in DMEM with 10% calf serum, 100 U/ml penicillin, 100 µg/ml streptomycin and used between 10 to 16 passages. Cells transfected with c-myc (VSMC-MYC) and E1A-adenovirus (VSMC-E1A) were obtained in accordance with a previously-described protocol (18,19) and were cultured in the same medium with the addition of 500 µg/ml genticin. Jurkat cells were obtained from the American Type Culture Collection and cultured in RPMI 1640 medium supplied with 10% calf serum, antibiotics, sodium pyruvate, glutamate and β-mercaptoethanol.
Chromatin cleavage assay. Chromatin cleavage in VSMC was estimated by a technique described previously in detail (10). Briefly, VSMC grown in 24-well dishes were labeled for 24 hours in serum-supplied DMEM with [^3H]-thymidine (1 μCi/ml), washed with 2×2 ml of DMEM and incubated in serum-supplied DMEM. In 48 hr, the cells were pretreated with ouabain or K^+-depleted medium as indicated in FIG. 2 and Table 3, washed twice with serum-containing medium and incubated with 0.5 ml of medium with or without ouabain and containing different inducers of apoptosis. To measure the content of chromatin fragments, the cells were transferred on ice and 1 ml of ice-cold lysed buffer (10 mM EDTA, 10 mM tris-HCl, 0.5% triton X100 (pH 8.0)) was added. After 15 min, the cell lysate was transferred to Ependorf tubes, sedimented (12,000 rpm, 10 mm), and 1 ml of supernatant was transferred for the measurement of radioactivity (A1t). The remaining radioactivity from pellets and wells was extracted with 0.5 ml of 1% SDS/4 mM EDTA mixture, combined and counted (A2). Chromatin cleavage was quantified as the content of chromatin fragments normalized by total content of [^3H]-labeled DNA in accordance with the equation [1.5×(A1t−A1o)/(A2+A1t−1.5A1o)]×100% where A1o is the value of A1t before induction of apoptosis. To measure chromatin fragmentation in [^3H]-thymidine-labeled Jurkat cells, they were resuspended at a density of 10^6 cells/ml in medium containing 10% calf serum and the additions indicated in FIG. 4 and Table 4. At the time intervals shown in FIG. 4, 100 μl of cell suspension was mixed with 100 μl of PBS contairung 0.5% triton X100, and the content of chromatin fragments was measured as described previously in detail (20).

Jurkat cells [2] = test: Intracellular Na+ and K+ content in Jurkat cells; assay type: cell-based, human; settings: for Intracellular cations K^+i / Intracellular cations Na^+i: ouabain-treated Jurkat cells, 1 mM, 6 hours
Protocol: FIG. 1. Kinetics of modulation of intracellular Na^+ (1, 2) and K^+ (3, 4) content by ouabain in VSMC-E1A (1, 3) and Jurkat cells (2, 4). Cells were preincubated for 24 hours in the presence of 10% calf serum in control medium consisting of 91 mM NaCl, 5 mM KCl, 0.9 mM NaH2PO4, 44 mM NaHCO3, 1.8 mM CaCl2, 0.8 mM MgCl2, 33 mM HEPES and 5 mM D-glucose (pH 7.4) with 2 μCi/ml of ^22Na or 0.5 μCi/ml ^86Rb, and 1 mM ouabain was added at the time interval indicated by the arrow. At specific time-points, intracellular Na^+ and K content + was measured as described in Experimental Procedures. Mean values±S.E. obtained in experiments performed in quadruplicate (VSMC-E1A) or triplicate (Jurkat cells) are given.
as §1
Intracellular Na^+ and K^+ content. The intracellular content of exchangeable Na^+ and K^+ was measured as steady-state distribution of extra- and intracellular ^22Na and ^86Rb, as described previously in detail (22). Briefly, to establish the steady-state distribution of isotopes, VSMC growing in 12× (^22Na) or 24× (^86Rb) well plates or ˜10^6 Jurkat cells in suspension were preincubated for 24 hours in DMEM containing 10% calf serum and 0.5 μCi/ml ^86RbCl or 2 μCi/ml ^22NaCl and then treated in media with compositions shown in FIG. 1 and Tables 3 and 4 and with the same specific radioactivity. At the end of incubation, the VSMC were transferred on ice, washed 4 times with 2 ml of ice-cold medium W, containing 100 mM MgCl2 and 10 mM HEPES-tris buffer (pH 7.4), and lysed with SDS/EDTA mixture. One ml of Jurkat cell suspension was applied on a Whatman type C filter with the cells being washed with 3×5 ml aliquots of ice-cold medium W under negative pressure of 20-30 mm Hg. Radioactivity of the incubation medium and cell lysate was measured with a liquid scintillation analyzer and intracellular cation content was determined as A/am, where A was the radioactivity of the samples (cpm), a was the specific radioactivity of Na^+ and K^+(^86Rb) in the medium (cpm/nmol), and m was the protein content determined by Lowry methods.

VSMC = test: Protein synthesis in VSMC; settings: 8 hours incubation with ouabain, data not shown

Structure (SMILES)	chromatin cleavage in the absence of triggers of apoptosis (Jurkat cells [1]; Jurkat cells, 2 hours ouabain pretreatment, subsequent 3 hours)	increment of chromatin cleavage triggered by Fas ligand, staurosporine or mannitol (Jurkat cells [1]; Jurkat cells, ouabain, 3 hours treatment with trigger)	Chromatin fragments (%) (Jurkat cells [1]; ouabain-treated Jurkat cells, +Fas-L 100 ng/ml, medium [Na+]o=14, [K+]o=128 mM)	Chromatin fragments (%) (Jurkat cells [1]; ouabain-treated Jurkat cells, +Fas-L 100 ng/ml, medium [Na+]o=137, [K+]o=5 mM)	Chromatin fragments (%) (Jurkat cells [1]; ouabain-treated Jurkat cells, no Fas-L, medium [Na+]o=14, [K+]o=128 mM)	Chromatin fragments (%) (Jurkat cells [1]; ouabain-treated Jurkat cells, no Fas-L, medium [Na+]o=14, [K+]o=128 mM, listed as ouabain)	Chromatin fragments (%) (Jurkat cells [1]; ouabain-treated Jurkat cells, no Fas-L, medium [Na+]o=137, [K+]o=5 mM)	Chromatin fragments (%) (Jurkat cells [1]; ouabain-treated Jurkat cells, no Fas-L, medium [Na+]o=137, [K+]o=5 mM, listed as ouabain)	increment of the content of chromatin fragments triggered by Fas ligand (Jurkat cells [1]; ouabain-treated Jurkat cells, 7-hr incubation)	increase of the content of intracellular Na^+ (Jurkat cells [2]; ouabain treated Jurkat lymphocytes, 1 mM (FIG. 1, curve 2))	Intracellular cations K^+i (Jurkat cells [2]; medium [Na+]o=14, [K+]o=128 mM)	Intracellular cations Na^+i (Jurkat cells [2]; medium [Na+]o=14, [K+]o=128 mM)	Intracellular cations K^+i (Jurkat cells [2]; medium [Na+]o=137, [K+]o=5 mM)	Intracellular cations Na^+i (Jurkat cells [2]; medium [Na+]o=137, [K+]o=5 mM)	protein synthesis (VSMC)	content of chromatin fragments (Jurkat cells [1]; Jurkat cells)
C[C@@H]1O[C@@H](O[C@H]2C[C@@H](O)[C@]3(CO)[C@H]4[C@H](O)C[C@]5(C)[C@@H](C6=CC(=O)OC6)CC[C@]5(O)[C@@H]4CC[C@]3(O)C2)[C@H](O)[C@H](O)[C@H]1O [Ouabain, 1β,3β,5,11α,14,19-hexahydroxycard 20 [22]-enolide 3-[6-deoxy-α-L-mannopyrano-sidel]]	did not significantly modify chromatin cleavage	did not observe any effect	22.7%	42.7%	5.7%	5.7±2.0%	16.0%	16.0±4.6%	26.2±4.7%	10 fold	498 nmol/mg protein	204 nmol/mg protein	107 nmol/mg protein	1137 nmol/mg protein	did not observe any significant effect	
OC[C@@H](O)[C@@H](O)[C@H](O)[C@H](O)CO [mannitol]																15.6±2.9%
CN[C@@H]1C[C@H]2O[C@@](C)([C@@H]1OC)n1c3ccccc3c3c4c(c5c6ccccc6n2c5c31)C(=O)NC4 [staurosporine]																19.7±4.3%
